Assay results as given in patent US20220041582A1, “ISOXAZOLINE COMPOUNDS FOR CONTROLLING INVERTEBRATE PESTS” (FMC Corporation, priority 2018, published 2022).
Where two headings read alike, the source gives them in different places.

Assays:
Type in all cases: in vivo
[1] = tested on: potato leafhopper (Empoasca fabae (Harris)); assay: Test D: control of potato leafhopper through contact and/or systemic means; settings: 144 h
Experimental: (§1) Formulation and Spray Methodology for Tests A-H
(§2) Test compounds were formulated using a solution containing 10% acetone, 90% water and 300 ppm Activator 90® non-ionic surfactant (Loveland Products, Loveland, Colo., USA). The formulated compounds were applied in 1 mL of liquid through an atomizer nozzle positioned 1.27 cm (0.5 inches) above the top of each test unit. Test compounds were sprayed at the rates indicated, and each test was replicated three times.
[…] White sand was added to the top of the soil, and one of the primary leaves was excised prior to application of the test compound.
Test compounds were formulated and sprayed at 250, 50 and 10 ppm. After spraying of the formulated test compound, the test units were allowed to dry for 1 hour before they were post-infested with 5 potato leafhoppers (18-to-21-day-old adults). A black, screened cap was placed on the top of the test unit, and the test units were held for 6 days in a growth chamber at 20° C. and 70% relative humidity. Each test unit was then visually assessed for insect mortality.

[2] = tested on: cotton melon aphid (Aphis gossypii (Glover)); assay: Test F: control of cotton melon aphid through contact and/or systemic means; settings: 144 h
Experimental: as §1, §2
[…] This was pre-infested with 30-40 insects on a piece of leaf according to the cut-leaf method, and the soil of the test unit was covered with a layer of sand.
Test compounds were formulated and sprayed at 250, 50 and 10 ppm. After spraying, the test units were maintained in a growth chamber for 6 days at 19° C. and 70% relative humidity. Each test unit was then visually assessed for insect mortality.

[3] = tested on: green peach aphid (Myzus persicae (Sulzer)); assay: Test E: control of green peach aphid through contact and/or systemic means; settings: 144 h
Experimental: as §1, §2
For evaluating control of green peach aphid (Myzus persicae (Sulzer)) through contact and/or systemic means, the test unit consisted of a small open container with a 12-15-day-old radish plant inside. This was pre-infested by placing on a leaf of the test plant 30-40 aphids on a piece of leaf excised from a culture plant (cut-leaf method). The aphids moved onto the test plant as the leaf piece desiccated. After pre-infestation, the soil of the test unit was covered with a layer of sand.
Test compounds were formulated and sprayed at 250, 50 and 10 ppm. After spraying of the formulated test compound, each test unit was allowed to dry for 1 hour and then a black, screened cap was placed on top. The test units were held for 6 days in a growth chamber at 19-21° C. and 50-70% relative humidity. Each test unit was then visually assessed for insect mortality.

[4] = tested on: sweetpotato whitefly (Bemisia tabaci (Gennadius)); assay: Test G: control of sweetpotato whitefly through contact and/or systemic means; settings: 312 h
Experimental: as §1, §2
For evaluating control of the sweetpotato whitefly (Bemisia tabaci (Gennadius)) through contact and/or systemic means, the test unit consisted of a small open container with a 12-14-day-old cotton plant inside. Prior to the spray application, both cotyledons were removed from the plant, leaving one true leaf for the assay. Adult whiteflies were allowed to lay eggs on the plant and then were removed from the test unit. Cotton plants infested with at least 15 eggs were submitted to the test for spraying.
Test compounds were formulated and sprayed at 250, 50 and 10 ppm. After spraying, the test units were allowed to dry for 1 hour. The cylinders were then removed, and the units were taken to a growth chamber and held for 13 days at 28° C. and 50-70% relative humidity. Each test unit was then visually assessed for insect mortality.

[5] = 50 ppm spray, 6 days, read-out: mortality
[6] = 10 ppm spray, 6 days, read-out: mortality

Structure (SMILES)	mortality at 50 ppm [1]	mortality at 50 ppm [2]	mortality at 50 ppm [3]	mortality at 50 ppm [4]	mortality at 10 ppm [2]	also measured
C[S+]([O-])CCNC(=O)c1ccc(C2=NOC(c3cc(Cl)c(F)c(Cl)c3)(C(F)(F)F)C2)c2ccncc12 (stereo not drawn) [Compound 11]	≥ 80%	≥ 80%	≥ 80%	–	–	mortality at 10 ppm [1]: ≥ 80%
C[C@@H](NC(=O)c1ccc(C2=NOC(c3cc(Cl)c(F)c(Cl)c3)(C(F)(F)F)C2)c2ccncc12)C(=O)NCC(F)(F)F (stereo partly drawn) [Compound 56]	–	≥ 80%	≥ 80%	≥ 50%	–	–
O=C(NCC1CC1)c1ccc(C2=NOC(c3cc(Cl)cc(C(F)(F)F)c3)(C(F)(F)F)C2)c2ccncc12 (stereo not drawn) [Compound 36, 5-[5-[3-chloro-5-(trifluoromethyl)phenyl]-4,5-dihydro-5-(trifluoromethyl)-3-isoxazolyl]-N-(cyclopropylmethyl)-8-isoquinolinecarboxamide]	≥ 80%	≥ 80%	≥ 80%	≥ 50%	≥ 80%	mortality at 10 ppm [1]: ≥ 80%; mortality at 10 ppm [3]: ≥ 80%; mortality at 10 ppm [4]: ≥ 50%
C[C@@H](NC(=O)c1ccc(C2=NOC(c3cc(Cl)c(F)c(Cl)c3)(C(F)(F)F)C2)c2ccncc12)c1ccccn1 (stereo partly drawn) [Compound 13]	≥ 80%	≥ 80%	≥ 80%	≥ 50%	≥ 80%	mortality at 10 ppm [1]: ≥ 80%; mortality at 10 ppm [3]: ≥ 80%; mortality at 10 ppm [4]: ≥ 50%
CS(=O)(=O)CCNC(=O)c1ccc(C2=NOC(c3cc(Cl)c(F)c(Cl)c3)(C(F)(F)F)C2)c2ccncc12 (stereo not drawn) [Compound 12]	–	≥ 80%	–	–	–	–
C[C@@H](NC(=O)c1ccc(C2=NOC(c3cccc(C(F)(F)F)c3)(C(F)(F)F)C2)c2ccncc12)C(N)=O (stereo partly drawn) [Compound 25]	–	–	–	–	–	mortality at 50 ppm [2, 5]: ≥ 80%
O=C(NCC1CCCO1)c1ccc(C2=NOC(c3cc(Cl)c(F)c(Cl)c3)(C(F)(F)F)C2)c2ccncc12 (stereo not drawn) [Compound 26]	–	≥ 80%	–	≥ 50%	–	–
COCC(C)NC(=O)c1ccc(C2=NOC(c3cc(Cl)c(F)c(Cl)c3)(C(F)(F)F)C2)c2ccncc12 (stereo not drawn) [Compound 20]	≥ 80%	≥ 80%	≥ 80%	≥ 50%	≥ 80%	mortality at 10 ppm [3]: ≥ 80%; mortality at 10 ppm [4]: ≥ 50%
CCNC(=O)c1ccc(C2=NOC(c3cc(Cl)c(F)c(Cl)c3)(C(F)(F)F)C2)c2ccncc12 (stereo not drawn) [Compound 46, 5-[5-(3,5-dichloro-4-fluorophenyl)-4,5-dihydro-5-(trifluoromethyl)-3-isoxazolyl]-N-ethyl-8 soquinolinecarboxamide]	–	≥ 80%	–	–	≥ 80%	–
C[C@@H](NC(=O)c1ccc(C2=NOC(c3cc(Cl)cc(C(F)(F)F)c3)(C(F)(F)F)C2)c2ccncc12)C(N)=O (stereo partly drawn) [Compound 40]	–	≥ 80%	–	–	–	–
N#CC1(CNC(=O)c2ccc(C3=NOC(c4cc(Cl)c(F)c(Cl)c4)(C(F)(F)F)C3)c3ccncc23)CC1 (stereo not drawn) [Compound 10]	≥ 80%	≥ 80%	≥ 80%	≥ 50%	–	mortality at 10 ppm [4]: ≥ 50%
CS(=O)(=O)CCNC(=O)c1ccc(C2=NOC(c3cccc(C(F)(F)F)c3)(C(F)(F)F)C2)c2ccncc12 (stereo not drawn) [Compound 19]	–	–	–	–	–	mortality at 50 ppm [2, 5]: ≥ 80%; mortality at 50 ppm ([4]; 50 ppm spray, 13 days, read-out: mortality): ≥ 50%
O=C(NCC1CC1)c1ccc(C2=NOC(c3cc(Cl)c(F)c(Cl)c3)(C(F)(F)F)C2)c2ccncc12 (stereo not drawn) [Compound 3, N-(cyclopropylmethyl)-5-[5-(3,5-dichloro-4-fluorophenyl)-4,5-dihydro-5-(trifluoromethyl)-3-isoxazolyl]-8-isoquinolinecarboxamide]	–	≥ 80%	≥ 80%	≥ 50%	≥ 80%	mortality at 10 ppm [3]: ≥ 80%; mortality at 10 ppm [4]: ≥ 50%
O=C(NCC1CC1)c1ccc(C2=NOC(c3cccc(C(F)(F)F)c3)(C(F)(F)F)C2)c2ccncc12 (racemic) [Compound 17, N-(cyclopropylmethyl)-5-[4,5-dihydro-5-(trifluoromethyl)-5-[3-(trifluoromethyl)phenyl]-3-isoxazolyl]-8-isoquinolinecarboxamide]	–	–	–	–	–	mortality at 10 ppm [2, 6]: ≥ 80%; mortality at 50 ppm [2, 5]: ≥ 80%; mortality at 10 ppm [3, 6]: ≥ 80%; mortality at 50 ppm [3, 5]: ≥ 80%
O=C(NCc1cnccn1)c1ccc(C2=NOC(c3cc(Cl)c(F)c(Cl)c3)(C(F)(F)F)C2)c2ccncc12 (stereo not drawn) [Compound 7]	≥ 80%	≥ 80%	≥ 80%	≥ 50%	–	–
C[C@H](C[S+](C)[O-])NC(=O)c1ccc(C2=NOC(c3cc(Cl)c(F)c(Cl)c3)(C(F)(F)F)C2)c2ccncc12 (stereo partly drawn) [Compound 14]	≥ 80%	–	–	–	–	–
CS(=O)(=O)N1CC(NC(=O)c2ccc(C3=NOC(c4cc(Cl)c(F)c(Cl)c4)(C(F)(F)F)C3)c3ccncc23)C1 (stereo not drawn) [Compound 21, 5-[5-(3,5-dichloro-4-fluorophenyl)-4,5-dihydro-5-(trifluoromethyl)-3-isoxazolyl]-N-[1-(methylsulfonyl)-3-azetidinyl]-8-isoquinolinecarboxamide]	≥ 80%	≥ 80%	–	≥ 50%	–	–
O=C(NC1CC1)c1ccc(C2=NOC(c3cccc(C(F)(F)F)c3)(C(F)(F)F)C2)c2ccncc12 (stereo not drawn) [Compound 16, N-cyclopropyl-5-[4,5-dihydro-5-(trifluoromethyl)-5-[3-(trifluoromethyl)phenyl]-3-isoxazolyl]-8-isoquinolinecarboxamide]	–	–	–	–	–	mortality at 50 ppm [3, 5]: ≥ 80%
C[S+]([O-])CCNC(=O)c1ccc(C2=NOC(c3cccc(C(F)(F)F)c3)(C(F)(F)F)C2)c2ccncc12 (stereo not drawn) [Compound 30]	–	–	–	–	–	mortality at 50 ppm [2, 5]: ≥ 80%
O=C(NC1CSC1)c1ccc(C2=NOC(c3cc(Cl)c(F)c(Cl)c3)(C(F)(F)F)C2)c2ccncc12 (stereo not drawn) [Compound 43]	≥ 80%	≥ 80%	–	–	–	–
CC(C)NC(=O)c1ccc(C2=NOC(c3cc(Cl)c(F)c(Cl)c3)(C(F)(F)F)C2)c2ccncc12 (stereo not drawn) [Compound 28]	≥ 80%	≥ 80%	≥ 80%	≥ 50%	≥ 80%	mortality at 10 ppm [3]: ≥ 80%; mortality at 10 ppm [4]: ≥ 50%
O=C(NC1CC1)c1ccc(C2=NOC(c3cc(Cl)cc(Cl)c3)(C(F)(F)F)C2)c2ccncc12 (stereo not drawn) [Compound 70, N-cyclopropyl-5-[5-(3,5-dichlorophenyl)-4,5-dihydro-5-(trifluoromethyl)-3-isoxazolyl]-8-isoquinolinecarboxamide]	≥ 80%	≥ 80%	≥ 80%	–	≥ 80%	–
C[C@H](CSCC(F)(F)F)NC(=O)c1ccc(C2=NOC(c3cc(Cl)c(F)c(Cl)c3)(C(F)(F)F)C2)c2ccncc12 (stereo partly drawn) [Compound 62]	≥ 80%	≥ 80%	–	≥ 50%	–	–
O=C(NC1CC1)c1ccc(C2=NO[C@@](c3cc(Cl)c(F)c(Cl)c3)(C(F)(F)F)C2)c2ccncc12 [Compound 82, S—N-cyclopropyl-5-[5-(3,5-dichloro-4-fluorophenyl)-4,5-dihydro-5-(trifluoromethyl)-3-isoxazolyl]-8-isoquinolinecarboxamide]	≥ 80%	≥ 80%	≥ 80%	–	≥ 80%	mortality at 10 ppm [3]: ≥ 80%
O=C(NC1CC1)c1ccc(C2=NOC(c3cc(Cl)c(F)c(Cl)c3)(C(F)(F)F)C2)c2ccncc12 (stereo not drawn) [Compound 23, N-cyclopropyl-5-[5-(3,5-dichloro-4-fluorophenyl)-4,5-dihydro-5-(trifluoromethyl)-3-isoxazolyl]-8-isoquinolinecarboxamide]	≥ 80%	≥ 80%	≥ 80%	–	≥ 80%	mortality at 10 ppm [3]: ≥ 80%
CNC(=O)c1ccc(C2=NOC(c3cc(Cl)c(F)c(Cl)c3)(C(F)(F)F)C2)c2ccncc12 (stereo not drawn) [Compound 27]	–	≥ 80%	≥ 80%	–	–	–
CSC[C@@H](C)NC(=O)c1ccc(C2=NOC(c3cc(Cl)c(F)c(Cl)c3)(C(F)(F)F)C2)c2ccncc12 (stereo partly drawn) [Compound 8]	–	≥ 80%	–	–	–	–
